Source: US20100081200A1, “FORMULATIONS AND METHODS FOR CULTURING STEM CELLS” (priority 2007, published 2010)

Columns and labels:
[1] = test system: hESC colonies (HS401 cell line); assay: Lipids and lipid derivatives: classification of hESC colonies as undifferentiated, partly differentiated, differentiated; assay type: cell-based, human
Description: (§1) FIGS. 9A-9B show the morphology and differentiation stage of hESCs cultured in the present culture medium and in the presence of lipids and lipid derivatives. UD, PD and DIFF represent undifferentiated, partly differentiated and differentiated hESC colonies, respectively. FIG. 9A) HS401 cell line cultured in the present culture medium supplemented with different lipids and lipid derivatives. FIG. 9B) HS401 cell line cultured in control hES medium supplemented with different lipids and lipid derivatives.
Furthermore, the hESC colonies were classified into three categories; undifferentiated, partly differentiated and differentiated. Number of each colony type was calculated before each passaging. Later, a percentage value for each colony type of the total amount of colonies was calculated (FIG. 9).

hESCs (HS401 cell line) = assay: Lipids and lipid derivatives: visual evaluation of morphology, size and thickness of undifferentiated colonies; assay type: cell-based, human; details: for morphology of the undifferentiated colonies (in words): in both hES medium and the present culture medium
Description: as §1
Various lipids and lipid derivatives were tested in the culture medium (RegES) according to some embodiments of the present invention and in the conventional hES culture medium containing KO-SR (Knockout serum replacement, Invitrogen). General morphology, as well as the size and thickness of the undifferentiated colonies were evaluated before each passaging based on visual perceptions (Table 7).

hESC line Regea 07/046 = assay: Activin A: proliferation assay, FACS and qRT-PCR of pluripotency markers; assay type: cell-based, human
Method: FIG. 11B) Quantitative RT-PCR analysis of Nanog, Oct4, GDF3, DNMT3B, GABRB3 and GDF3 expression in hESC line Regea 07/046 cultured in the present culture medium without and in the presence of 5 ng/ml and 10 ng/ml Activin A and hES control medium for 10 passages. FIG. 11C) FACS analysis of SSEA4 and TRA-1-60 stem cell markers of hESC line Regea 07/046 cultured in the present culture medium without and in the presence of 5 ng/ml and 10 ng/ml Activin A and hES control medium for 10 passages.

[2] = test system: hESCs (Regea 07/046, HS401); assay: Retinol: proliferation and expression of stem cell markers; assay type: cell-based, human
Method: FIG. 10A) Bright-field microscopic image of hESCs (Regea 07/046) at day 3 cultured in the present culture medium without retinol for 5 passages. FIG. 10B) Bright-field microscopic image of hESCs (Regea 07/046) at day 3 cultured in the present culture medium containing 2.0 μM retinol for 5 passages. The size of the colonies is larger in the presence of retinol when compared to the colonies cultured without retinol. Scale bar 500 μm. FIGS. 10C-D) Fluorescent microscopic image of hESCs (HS401) cultured in the present culture medium containing 2.0 μM retinol for 12 passages showing positive expression of
Nanog and TRA-1-81. Insets represent DAPI staining. Scale bar 200 μm. FIG. 10E) Cell proliferation analysis of hESC line Regea 07/046 cultured in the present culture medium without and in the presence of 0.5, 2.0 and 3.5 μM retinol for 10 passages. FIG. 10F) Quantitative RT-PCR analysis of Oct4, GDF3, DNMT3B, TDGF1 and Nanog expression in hESC line Regea 07/046 cultured in the present culture medium without and in the presence of 0.5, 2.0 and 3.5 μM retinol for 10 passages.
Retinol was selected to be further evaluated in the maintenance of undifferentiated hESCs. […] In the presence of 2.0 μM retinol, the growth of the colonies started earlier and already at day 3 the size of the colonies was bigger (FIG. 10A-10B).

[3] = test system: human embryonic stem cells; assay: Effect of different vitamins on the undifferentiated growth of human embryonic stem cells; assay type: cell-based; details: for effect on undifferentiated growth / number of undifferentiated colonies (in words): retinol 20 μM, nicotinamide 5 mM and 10 mM, Vitamin Mix 1%
Method: The effect of different vitamins on the undifferentiated growth of human embryonic stem cells was tested by providing retinol (20 μM), nicotinamide (5 mM and 10 mM) or commercial Vitamin Mix (1%) containing nicotinamide but not retinol (MEM Vitamin Solution (100x), cat. No. 11120-037, provided by Gibco/Invitrogen) to human embryonic stem cells (Table 1). […] Vitamin Mix had no effect on the undifferentiated growth of embryonic stem cells.
Accordingly, the serum replacement according to some embodiments of the present invention is a xeno-free formulation comprising at least retinol. In some embodiments, the concentration range of retinol in the serum replacement is such that the final culture medium comprises from about 0.25 mg/l to about 0.5 mg/l, more specifically about 0.57 mg/l retinol. Accordingly, in embodiments wherein basal medium is to be supplemented with 20% (vol/vol) serum replacement, said serum replacement comprises retinol from about 1.25 mg/l to about 2.5 mg/l, more specifically about 2.85 mg/l.

[4] = test system: embryonic stem cell colonies; assay: Effect of fetuin and α-fetoprotein on growth rate and size of embryonic stem cell colonies; assay type: cell-based; details: human serum albumin 10 mg/ml
Method: All formulations shown contained human serum albumin at a concentration of 10 mg/ml.
The composition of the formulation according to this embodiment of the present invention was further optimized as described above in Table 2.

[5] = in the present culture medium, compared to control hES or Albumax-RegES medium
[6] = in hES culture medium, compared to control hES medium

CC(C)NCC(O)c1ccc(O)c(O)c1 (racemic) [DL-isoproterenol, reference compound]
number of undifferentiated and differentiated colonies [1, 5]: number of undifferentiated colonies increased and the number of differentiated colonies decreased | Morphology (hESCs (HS401 cell line); RegES medium, 0.1 mg/ml): ++ | Morphology (hESCs (HS401 cell line); hES medium, 0.1 mg/ml): + (poor morphology, uneven edges in the colonies, thin and/or small colonies) | morphology (in words) (hESCs (HS401 cell line); in hES culture medium): poor morphology and/or excess differentiation | morphology (in words) (hESCs (HS401 cell line); in the present culture medium): satisfying morphology

CCCCC/C=C\C/C=C\C/C=C\CCCCC(=O)O [Gamma-linoleic acid]
Morphology (hESCs (HS401 cell line); RegES medium, 2.5 μg/ml): − (excess differentiation of the colonies, poor morphology) | Morphology (hESCs (HS401 cell line); hES medium, 2.5 μg/ml): ++

Activin A: Activin A, growth factor supplement of the culture medium
proliferation rate (hESC line Regea 07/046; 5 or 10 ng/ml in the present culture medium, compared to without Activin A): almost two-fold | expression of pluripotency supporting markers (hESC line Regea 07/046; FACS and qRT-PCR, transcriptional and translational level): increased the expression

Phosphatidylethanolamine
Morphology (hESCs (HS401 cell line); RegES medium, 5 μg/ml): ++ | Morphology (hESCs (HS401 cell line); hES medium, 5 μg/ml): − (excess differentiation of the colonies, poor morphology) | morphology (in words) (hESCs (HS401 cell line); in hES culture medium): poor morphology and/or excess differentiation | morphology (in words) (hESCs (HS401 cell line); in the present culture medium): satisfying morphology

CCCCC[C@H](O)/C=C/[C@H]1[C@H](O)CC(=O)[C@@H]1C/C=C\CCCC(=O)O [Prostaglandin E2]
Morphology (hESCs (HS401 cell line); RegES medium, 50 ng/ml): − (excess differentiation of the colonies, poor morphology) | Morphology (hESCs (HS401 cell line); hES medium, 50 ng/ml): + (poor morphology, uneven edges in the colonies, thin and/or small colonies)

Lysophosphatidylcholine
Morphology (hESCs (HS401 cell line); RegES medium, 5 μg/ml): ++ | Morphology (hESCs (HS401 cell line); hES medium, 5 μg/ml): − (excess differentiation of the colonies, poor morphology) | morphology (in words) (hESCs (HS401 cell line); in hES culture medium): poor morphology and/or excess differentiation | morphology (in words) (hESCs (HS401 cell line); in the present culture medium): satisfying morphology

CCCCCC/C=C\CCCCCCCC(=O)O [Palmitoleic acid]
number of undifferentiated and differentiated colonies [1, 5]: number of undifferentiated colonies increased and the number of differentiated colonies decreased | morphology of the undifferentiated colonies (in words) (hESCs (HS401 cell line)): improved the morphology

Phosphatidylcholine
number of undifferentiated and differentiated colonies [1, 6]: number of undifferentiated colonies increased and the number of differentiated colonies decreased | Morphology (hESCs (HS401 cell line); RegES medium, 2.5 μg/ml): − (excess differentiation of the colonies, poor morphology) | Morphology (hESCs (HS401 cell line); hES medium, 2.5 μg/ml): ++

CC1=C(/C=C/C(C)=C/C=C/C(C)=C/CO)C(C)(C)CCC1 [Retinol, retinol]
Nanog relative expression level ([2]; 2.0 μM and 3.5 μM, qRT-PCR): over twentyfold | proliferation rate ([2]; 2.0 μM or 3.5 μM, compared to without retinol or 0.5 μM): almost two-fold | proliferation of hESCs and expression of hESC specific markers ([2]; 2.0 μM or above): improved the proliferation of hESCs as well as induced the expression of hESC specific markers | size of the colonies ([2]; 2.0 μM, day 3): bigger | morphology and number of undifferentiated colonies ([2]; 0.1-0.5 μM): not effective | immunocytochemical staining of Nanog and TRA-1-81 ([2]; cultured in the presence of retinol): showed expression of stem cell markers Nanog and TRA-1-81 | maintaining stem cells in an undifferentiated state ([3]; 2 μM): effective | effect on undifferentiated growth / number of undifferentiated colonies (in words) [3]: increased the number of undifferentiated colonies considerably | number of undifferentiated and differentiated colonies [1, 6]: number of undifferentiated colonies increased and the number of differentiated colonies decreased | number of undifferentiated and differentiated colonies [1, 5]: number of undifferentiated colonies increased and the number of differentiated colonies decreased | morphology of the undifferentiated colonies (in words) (hESCs (HS401 cell line)): improved the morphology

NC(=O)c1cccnc1 [Nicotinamide, nicotinamide]
effect on undifferentiated growth / number of undifferentiated colonies (in words) [3]: promoting their differentiation

CC(C)CCC[C@@H](C)[C@H]1CC[C@H]2[C@@H]3CC=C4C[C@@H](O)CC[C@]4(C)[C@H]3CC[C@]12C [Cholesterol]
number of undifferentiated and differentiated colonies [1, 6]: number of undifferentiated colonies increased and the number of differentiated colonies decreased

CCCCCCCCCCCCCCCCCC(=O)O [Stearic acid]
number of undifferentiated and differentiated colonies [1, 5]: number of undifferentiated colonies increased and the number of differentiated colonies decreased | morphology (in words) (hESCs (HS401 cell line); in hES culture medium): poor morphology and/or excess differentiation | morphology (in words) (hESCs (HS401 cell line); in the present culture medium): satisfying morphology

Conjugated linoleic acid
number of undifferentiated and differentiated colonies [1, 6]: number of undifferentiated colonies increased and the number of differentiated colonies decreased | number of undifferentiated and differentiated colonies [1, 5]: number of undifferentiated colonies increased and the number of differentiated colonies decreased | Morphology (hESCs (HS401 cell line); RegES medium, 5 μg/ml): ++ | Morphology (hESCs (HS401 cell line); hES medium, 5 μg/ml): +++ (nice morphology, even, thick and big colonies) | morphology of the undifferentiated colonies (in words) (hESCs (HS401 cell line)): improved the morphology

CCCCC/C=C\C/C=C\C/C=C\C/C=C\CCCC(=O)O [Arachidonic acid]
number of undifferentiated and differentiated colonies [1, 6]: number of undifferentiated colonies increased and the number of differentiated colonies decreased

CCCCC[C@H](O)/C=C/[C@@H]1[C@@H](C/C=C\CCCC(=O)O)[C@@H](O)C[C@H]1O [Prostaglandin F2]
Morphology (hESCs (HS401 cell line); RegES medium, 50 ng/ml): ++ | Morphology (hESCs (HS401 cell line); hES medium, 50 ng/ml): − (excess differentiation of the colonies, poor morphology) | morphology (in words) (hESCs (HS401 cell line); in hES culture medium): poor morphology and/or excess differentiation | morphology (in words) (hESCs (HS401 cell line); in the present culture medium): satisfying morphology

CCCCC/C=C\C/C=C\CCCCCCCC(=O)O [Linoleic acid]
number of undifferentiated and differentiated colonies [1, 5]: number of undifferentiated colonies increased and the number of differentiated colonies decreased | morphology of the undifferentiated colonies (in words) (hESCs (HS401 cell line)): improved the morphology

CC/C=C\C/C=C\C/C=C\CCCCCCCC(=O)O [Alfa-linoleic acid]
Morphology (hESCs (HS401 cell line); RegES medium, 5 μg/ml): −/− (excess differentiation of the colonies, poor morphology) | Morphology (hESCs (HS401 cell line); hES medium, 5 μg/ml): −/− (excess differentiation of the colonies, poor morphology)

B1: F: Fetuin, commercially available fetal carrier protein (protein, UniProt P12763 19-359, looked up)
Alpha-2-HS-glycoprotein: IPLDPVAGYKEPACDDPDTEQAALAAVDYINKHLPRGYKHTLNQIDSVKVWPRRPTGEVYDIEIDTLETTCHVLDPTPLANCSVRQQTQHAVEGDCDIHVLKQDGQFSVLFTKCDSSPDSAEDVRKLCPDCPLLAPLNDSRVVHAVEVALATFNAESNGSYLQLVEISRAQFVPLPVSVSVEFAVAATDCIAKEVVDPTKCNLLAEKQYGFCKGSVIQKALGGEDVRVTCTLFQTQPVIPQPQPDGAEAEAPSAVPDAAGPTPSAAGPPVASVVVGPSVVAVPLPLHRAHYDLRHTFSGVASVESSSGEAFHVGKTPIVGQPSIPGGPVRLCPGRIRYFKI
concentration that increased colony size and growth rate the most [4]: 0.1 mg/mL
